Data from patent publication US9539257B2, “Method of treating cancer” (NOVARTIS AG, priority 2009, dated 2017).
Several values for one entry are separate records, joined by “and”; a condition that tells them apart may be missing. Equal entries are not always repeated. Where two headings read alike, the source gives them in different places.

What was measured:
[1] = system: UGT1A1*28; conditions: confirmation analysis, lapatinib plus letrozole arm
Description: Statistical analyses used for this investigation indicated the following. The two phenotypes that were evaluated were maximum on-treatment liver chemistry values for ALT and TBL with respect to the upper limit of normal. These phenotypes were evaluated in both case-control and quantitative trait analyses while key associations were examined qualitatively in the combined ALT/TBL cases. ALT and TBL cases were defined as maximum on-treatment elevations of ≧3×ULN and ≧1.5×ULN, respectively, and control subjects were defined as maximum on-treatment ALT or TBL of ≦1×ULN. […] Approximately 370 patients with an adequate, fully consented DNA sample had available clinical data for these phenotypes.

[2] = On-treatment liver chemistry (ALT, TBL, ALP), confirmatory study PGx population, lapatinib plus letrozole phase III trial; assay type: in vivo, human
[3] = system: HLA-DQA1*0201
Description: (§1) Germline DNA was extracted from peripheral blood (QiAmp DNA Blood Kit, Qiagen, Valencia, Calif.). This study evaluated candidate gene and genome-wide screening, performed in parallel, to detect case-control association signals in the exploratory cohort. Class I and II HLA genes (seven genes to 4-digit and three genes to 2-digit resolution) were typed by Laboratory Corporation of America (Burlington, N.C.) and Histogenetics (Ossining, N.Y.), or at GSK using the LABType® SSO Typing Test (One Lambda, Canoga Park, Calif.). […] Whole genome screen genotyping on the Illumina Human 1M-Duo platform was also conducted (Expression Analysis, Durham, N.C.).
(§2) For the exploratory study, initial analysis of the GWAS was done using logistic regression, carried out in PLINK (Purcell S, et al. American Journal of Human Genetics 2007; 81, 559-575) using the genotypic test option when three genotype classes were observed, or the additive test option when only two genotype classes were observed. […] In addition to the genotype term, all models included baseline ALT xULN, treatment group (for the exploratory study), and a sufficient number of principal components to account for potential confounding by population structure. Principal components were obtained from EIGENSOFT (Patterson N. et al. PLoS Genetics 2006; 2: e190), using study subjects and HapMap founders.
(§3) Genetic markers selected for confirmatory were required to achieve pre-defined p-value thresholds in the exploratory analysis of p≦0.05 for HLA markers, p≦0.01 for candidate gene markers and p≦10-4 for whole genome screen SNPs. For markers confirmed at p≦0.01, measures of potential clinical utility were evaluated. An allele or genotype(s) was designated which conferred a higher risk of ALT elevation and this was compared to the non-risk allele(s)/genotype(s) and the odds ratio (OR), positive predictive value (PPV), and negative predictive value (NPV) calculated.

[4] = system: HLA-DRB1*0701; conditions: Exploratory study
Description: as §1, §2, §3

[5] = system: HLA-DQB1*0202; conditions: Exploratory study
Description: as §1, §2, §3

[6] = On-treatment liver chemistry (ALT, TBL, ALP), exploratory study PGx population, twelve AMBC trials
[7] = system: HLA-DQA1*0201; conditions: for HLA-DQA1*0201 Carrier: Non Cases (number) / HLA-DQA1*0201 Non-Carrier: Non Cases (number) / HLA-DQA1*0201 Carrier: Cases (number) / HLA-DQA1*0201 Non-Carrier: Cases (number) / NPV (CI) / OR (CI) / PPV (CI): confirmatory cohort; for NPV (CI) / OR (CI) / PPV (CI): HLA-DQA1*0201 carriage, cases vs non-cases
Description: (§4) The two phenotypes that were evaluated were maximum on-treatment liver chemistry values for ALT and TBL with respect to the upper limit of normal. These phenotypes were evaluated in both case-control and quantitative trait analyses while key associations were examined qualitatively in the combined ALT/TBL cases. ALT and TBL cases were defined as maximum on-treatment elevations of ≧3×ULN and ≧1.5×ULN, respectively, and control subjects were defined as maximum on-treatment ALT or TBL of ≦1×ULN. […] Approximately 370 patients with an adequate, fully consented DNA sample had available clinical data for these phenotypes.
as §1, §2, §3

[8] = system: HLA-DRB1*0701
Description: as §4, §1, §2, §3

[9] = system: HLA-DQB1*0202
Description: as §4, §1, §2, §3

[10] = Confirmatory Study ALT Cases (N=24)
[11] = Confirmatory Study ALT Cases with HLA Data Available, at time of maximum ALT
[12] = Confirmatory Study ALT Controls (N=155)
[13] = Confirmatory Study PGx Population (1 trial, N=374), lapatinib combination with letrozole
[14] = Confirmatory Study PGx Population (N=374), lapatinib + letrozole
[15] = lapatinib plus letrozole arm of the confirmatory study
[16] = Exploratory Study ALT Cases (N=37)
[17] = Exploratory Study ALT Cases with HLA Data Available, at time of maximum ALT
[18] = Exploratory Study ALT Controls (N=286)
[19] = Exploratory Study PGx Population (12 trials, N=901), lapatinib monotherapy or combinations
[20] = Exploratory Study PGx Population (N=901)
[21] = restricted baseline (ALT and TBL <=1xULN at baseline)
[22] = unrestricted baseline (ALT and/or TBL >1xULN at baseline)
[23] = DRB1*0701 carriage, ALT cases, Confirmatory study
[24] = DRB1*0701 carriage, ALT controls, Confirmatory study
[25] = DQB1*0202 carriage, ALT cases, Confirmatory study
[26] = DQB1*0202 carriage, ALT controls, Confirmatory study

SMILES: CS(=O)(=O)CCNCc1ccc(-c2ccc3ncnc(Nc4ccc(OCc5cccc(F)c5)c(Cl)c4)c3c2)o1 [lapatinib, N-(3 chloro-4-{[(3-fluorophenyl)methyl]oxy}phenyl)-6-[5-({[2 (methylsulfonyl)ethyl]amino}methyl)-2-furanyl]-4-quinazolinamine bis(4 methylbenzenesulfonate)monohydrate]
- TBL cases carrying TA7/TA7 genotype ([1]; TBL cases >=1.5xULN (n=21)): 33%
- TBL controls carrying TA7/TA7 genotype ([1]; controls (n=226)): 4%
- Maximum on treatment ALT xULN: Mean(SD) [2, 10]: 6.50(3.73) xULN
- Maximum on treatment ALT xULN: Median [2, 10]: 4.96 xULN
- N of ALT cases with Cholestatic injury type [2, 11]: 3
- N of ALT cases with Hepatocellular injury type [2, 11]: 12
- N of ALT cases with Mixed injury type [2, 11]: 9
- Maximum on treatment ALT xULN: Mean(SD) [2, 12]: 0.66(0.19) xULN
- Maximum on treatment ALT xULN: Median [2, 12]: 0.65 xULN
- Maximum on treatment ALT xULN: Mean(SD) [2, 13]: 1.53 (1.97) xULN
- Maximum on treatment ALT xULN: Median [2, 13]: 0.91 xULN
- Maximum on treatment ALT > 3 xULN (%) [2, 14]: 9.4%
- Maximum on treatment ALT > 5 xULN (%) [2, 14]: 5.1%
- Maximum on treatment ALT > 8 xULN (%) [2, 14]: 2.4%
- Maximum on treatment TBL xULN: Mean(SD) [2, 14]: 0.93 (1.48) xULN
- Maximum on treatment TBL xULN: Median [2, 14]: 0.76 xULN
- hepatobiliary adverse event cases (ALT>3x and TBL >1.5xULN, irrespective of baseline ALT), number [2, 15]: Fifteen
- patients adjudicated by liver experts as probable Hy's Rule cases, number [2, 15]: two
- Carriage: cases (n/N) ([3]; DQA1*0201 carriage, ALT cases (>3xULN), Exploratory study): 14/35
- Carriage: controls (n/N) ([3]; DQA1*0201 carriage, ALT controls, Exploratory study): 58/283
- % that carry DQA1*0201, Cholestatic ([3]; Exploratory Study ALT Cases): 25%
- % that carry DQA1*0201, Hepatocellular ([3]; Exploratory Study ALT Cases): 43%
- % that carry DQA1*0201, Mixed ([3]; Exploratory Study ALT Cases): 40%
- N that carry DQA1*0201, Cholestatic ([3]; Exploratory Study ALT Cases): 1
- N that carry DQA1*0201, Hepatocellular ([3]; Exploratory Study ALT Cases): 9
- N that carry DQA1*0201, Mixed ([3]; Exploratory Study ALT Cases): 4
- Carriage: cases (%) ([4]; ALT cases): (40%)
- Carriage: cases (n/N) ([4]; ALT cases): 14/35
- Carriage: controls (%) ([4]; ALT controls): (21%)
- Carriage: controls (n/N) ([4]; ALT controls): 59/283
- Carriage: cases (%) ([5]; ALT cases): (37%)
- Carriage: cases (n/N) ([5]; ALT cases): 13/35
- Carriage: controls (%) ([5]; ALT controls): (17%)
- Carriage: controls (n/N) ([5]; ALT controls): 47/281
- Maximum on treatment ALT xULN: Mean(SD) [6, 16]: 6.47(6.57) xULN
- Maximum on treatment ALT xULN: Median [6, 16]: 4.70 xULN
- N of ALT cases with Cholestatic injury type [6, 17]: 4
- N of ALT cases with Hepatocellular injury type [6, 17]: 21
- N of ALT cases with Mixed injury type [6, 17]: 10
- Maximum on treatment ALT xULN: Mean(SD) [6, 18]: 0.59(0.21) xULN
- Maximum on treatment ALT xULN: Median [6, 18]: 0.59 xULN
- Maximum on treatment ALT xULN: Mean(SD) [6, 19]: 1.29 (1.96) xULN
- Maximum on treatment ALT xULN: Median [6, 19]: 0.80 xULN
- Maximum on treatment ALP xULN: Mean(SD) [6, 20]: 1.34 (1.40) xULN
- Maximum on treatment ALP xULN: Median [6, 20]: 0.91 xULN
- Maximum on treatment ALT > 3 xULN (%) [6, 20]: 7.3%
- Maximum on treatment ALT > 5 xULN (%) [6, 20]: 2.7%
- Maximum on treatment ALT > 8 xULN (%) [6, 20]: 1.0%
- Maximum on treatment TBL xULN: Median [6, 20]: 0.68 xULN
- HLA-DQA1*0201 Carrier: Non Cases (number) ([7]; ALT Cases > 3 xULN threshold): 82
- HLA-DQA1*0201 Non-Carrier: Non Cases (number) ([7]; ALT Cases > 3 xULN threshold): 268
- HLA-DQA1*0201 Carrier: Cases (number) ([7]; ALT Cases > 3 xULN): 17
- HLA-DQA1*0201 Non-Carrier: Cases (number) ([7]; ALT Cases > 3 xULN): 7
- HLA-DQA1*0201 Carrier: Non Cases (number) ([7]; ALT Cases > 5 xULN threshold): 90
- HLA-DQA1*0201 Non-Carrier: Non Cases (number) ([7]; ALT Cases > 5 xULN threshold): 272
- HLA-DQA1*0201 Carrier: Cases (number) ([7]; ALT Cases > 5 xULN): 9
- HLA-DQA1*0201 Non-Carrier: Cases (number) ([7]; ALT Cases > 5 xULN): 3
- HLA-DQA1*0201 Carrier: Non Cases (number) ([7]; ALT Cases > 8 xULN threshold): 93
- HLA-DQA1*0201 Non-Carrier: Non Cases (number) ([7]; ALT Cases > 8 xULN threshold): 274
- HLA-DQA1*0201 Carrier: Cases (number) ([7]; ALT Cases > 8 xULN): 6
- HLA-DQA1*0201 Non-Carrier: Cases (number) ([7]; ALT Cases > 8 xULN): 1
- % that carry DQA1*0201, Hepatocellular ([7]; Confirmatory Study ALT Cases): 83%
- % that carry DQA1*0201, Mixed ([7]; Confirmatory Study ALT Cases): 78%
- N that carry DQA1*0201, Cholestatic ([7]; Confirmatory Study ALT Cases): 0
- N that carry DQA1*0201, Hepatocellular ([7]; Confirmatory Study ALT Cases): 10
- N that carry DQA1*0201, Mixed ([7]; Confirmatory Study ALT Cases): 7
- Carriage: cases (n/N) ([7]; DQA1*0201 carriage, ALT cases (>3xULN), Confirmatory study, lapatinib plus letrozole): 17/24
- Carriage: controls (n/N) ([7]; DQA1*0201 carriage, ALT controls, Confirmatory study, lapatinib plus letrozole): 33/155
- PPV ([7]; Example 1A analysis: HLA-DQA1*0201, ALT cases vs all non-case subjects, 95% CI 0.11-0.27): 0.18
- NPV ([7]; Example 1A analysis: HLA-DQA1*0201, ALT cases vs all non-case subjects, 95% CI 0.95-0.99): 0.97
- NPV (CI) ([7]; ALT > 3 xULN): 0.97 (0.95, 0.99) and 0.975 (0.948, 0.990)
- OR (CI) ([7]; ALT > 3 xULN): 7.9 (3.0, 23.3)
- PPV (CI) ([7]; ALT > 3 xULN): 0.17 (0.10, 0.26)
- NPV (CI) ([7]; ALT > 5 xULN): 0.99 (0.97, 0.9977)
- OR (CI) ([7]; ALT > 5 xULN): 9.1 (2.2, 52.8)
- PPV (CI) ([7]; ALT > 5 xULN): 0.09 (0.04, 0.17)
- NPV (CI) ([7]; ALT > 8 xULN): 0.9964 (0.98, 0.9999)
- OR (CI) ([7]; ALT > 8 xULN): 17.7 (2.1, 816)
- PPV (CI) ([7]; ALT > 8 xULN): 0.06 (0.02, 0.13)
- DQA1*0201 alone carriage in non-cases ([7]; confirmatory study (82/350)): 23%
- cumulative incidence of ALT elevation, DQA1*0201 carriers compared with non-carriers ([7]; lapatinib plus letrozole treated patients, FIG. 3): higher
- reduction of the rate of ALT elevation on removal of DQA1*0201 carriers ([7]; lapatinib plus letrozole treated patients, confirmatory study): more than two-thirds
- hepatobiliary adverse event cases carrying the DQA1*0201 allele, number ([7]; of eleven cases that provided DNA): six
- combined ALT/TBL cases that were HLA-DQA1*0201 carriers [7, 21]: 6/6
- combined ALT/TBL cases that were HLA-DQA1*0201 carriers [7, 22]: 1/6
- Carriage: cases (%) [8, 23]: (67%)
- Carriage: cases (n/N) [8, 23]: 16/24
- Carriage: controls (%) [8, 24]: (23%)
- Carriage: controls (n/N) [8, 24]: 35/155
- combined ALT/TBL cases that were HLA-DRB1*0701 carriers [8, 21]: 6/6
- combined ALT/TBL cases that were HLA-DRB1*0701 carriers [8, 22]: 1/6
- Carriage: cases (%) [9, 25]: (63%)
- Carriage: cases (n/N) [9, 25]: 15/24
- Carriage: controls (%) [9, 26]: (19%)
- Carriage: controls (n/N) [9, 26]: 30/155
- combined ALT/TBL cases that carried HLA-DQB1*0202 [9, 21]: 5/6
- combined ALT/TBL cases that were HLA-DQB1*0202 carriers [9, 22]: 1/6
